Among the test systems are HOP-62 NSCLC; MDA-MB-231 breast; NCI-H460 lung; NCI-H522 lung; OVCAR-4 ovarian; OVCAR-8 ovarian; SK-MEL-28 melanoma; SN12C renal; U251 CNS; HOP-92 NSCLC.
Common to all, as to assay: inhibition of tumour cell growth, NCI panel, 48 h

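Following 48 hours of exposure in 96-well plates, responses at five concentrations were used to interpolate endpoints linearly. TGI is the concentration that stops growth completely.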

As for `O=C1C(=Nc2ccc(Nc3ccccc3)cc2)Oc2ccccc21`, the TGI was 22 µM with HOP-62 NSCLC; 4.51 µM in the experiment with MDA-MB-231 breast; 30.5 µM in the experiment on NCI-H460 lung; 4.3 µM in the experiment with NCI-H522 lung; 6.8 µM in the experiment with OVCAR-4 ovarian; 6.07 µM in the experiment on OVCAR-8 ovarian. Besides, the results for the TGI in the experiment with SK-MEL-28 melanoma, in the experiment with SN12C renal and in the experiment with U251 CNS were 19.3 µM, 4.62 µM and 4.27 µM, respectively.

In the case of `COc1ccc(CC(N)=O)cc1OC`, the TGI in the experiment on HOP-62 NSCLC was greater than 1250 µM; in the experiment with HOP-92 NSCLC, greater than 1170 µM; in the experiment with NCI-H460 lung, greater than 1250 µM; in the experiment on NCI-H522 lung, greater than 1250 µM; in the experiment on OVCAR-4 ovarian, greater than 1250 µM; in the experiment with OVCAR-8 ovarian, greater than 125 µM. The TGI in the experiment with SK-MEL-28 melanoma, in the experiment with SN12C renal and in the experiment on U251 CNS was greater than 1250 µM in each case.

With `C=C(CN(C)C)C(=O)c1ccc(C(=O)C(=C)CN(C)C)cc1`, the TGI in the experiment with HOP-92 NSCLC, in the experiment on NCI-H460 lung, with NCI-H522 lung, with OVCAR-4 ovarian, with OVCAR-8 ovarian and with SK-MEL-28 melanoma was greater than 100 µM in each case. The TGI in the experiment on SN12C renal and in the experiment with U251 CNS was greater than 100 µM in each case.

`O=C1NC(O)CCN1C1OC(CO)C(O)C1O` (stereo unspecified): the TGI with HOP-62 NSCLC is greater than 250 µM; in the experiment with HOP-92 NSCLC, greater than 250 µM; in the experiment with NCI-H460 lung, greater than 250 µM; in the experiment with NCI-H522 lung it was 247 µM; with OVCAR-4 ovarian, greater than 250 µM; in the experiment with OVCAR-8 ovarian it was greater than 250 µM. For the same compound, the figures for the TGI in the experiment with SK-MEL-28 melanoma, in the experiment with SN12C renal and in the experiment on U251 CNS were greater than 250 µM, greater than 250 µM and greater than 169 µM, respectively.

For the compound `COc1cc(C2c3cc4c(cc3[C@@H](Nc3ccccc3)C3COC(=O)[C@H]23)OCO4)cc(OC)c1O` (stereo partly specified), the TGI in the experiment with HOP-62 NSCLC was 0.671 µM; in the experiment with HOP-92 NSCLC, 11.7 µM; in the experiment with NCI-H460 lung, 2.86 µM; with NCI-H522 lung, 3.7 µM; in the experiment with OVCAR-4 ovarian it was 34.6 µM; with OVCAR-8 ovarian, greater than 19.7 µM. Besides, the results for the TGI in the experiment with SK-MEL-28 melanoma and with SN12C renal were 23.1 µM and 6.03 µM, respectively.

With `O=C(NCCCl)O/N=C/c1cccnc1`, the TGI in the experiment on HOP-62 NSCLC, in the experiment on HOP-92 NSCLC, in the experiment with NCI-H460 lung, in the experiment with NCI-H522 lung, with OVCAR-4 ovarian and with OVCAR-8 ovarian was greater than 100 µM in each case. Also, the TGI in the experiment on SK-MEL-28 melanoma, with SN12C renal and in the experiment on U251 CNS was greater than 100 µM in each case.

Regarding `CC(C)C1=CC23CCC4C(C)(C(=O)O)CCCC4(C)C2CC1C1C(=O)N(CCCCCCN2C(=O)C4C5CC6C7(C)CCCC(C)(C(=O)O)C7CCC6(C=C5C(C)C)C4C2=O)C(=O)C13` (stereo unspecified), the TGI in the experiment on HOP-92 NSCLC was 36.2 µM; in the experiment with MDA-MB-231 breast, 36.8 µM; in the experiment on NCI-H522 lung, 26.6 µM; with OVCAR-4 ovarian, 34.3 µM; in the experiment with OVCAR-8 ovarian it was 24.9 µM; in the experiment on SK-MEL-28 melanoma, 23.6 µM. Further, the values for the TGI in the experiment with SN12C renal and in the experiment with U251 CNS were 32.4 µM and 15.7 µM, respectively.

As for `CCOC(=O)CNC(=O)NC12CC3CC(CC(C3)C1)C2`, the TGI in the experiment with HOP-62 NSCLC is greater than 502 µM; with HOP-92 NSCLC it was 216 µM; in the experiment on NCI-H460 lung, greater than 460 µM; in the experiment with NCI-H522 lung it was greater than 536 µM; with OVCAR-4 ovarian, greater than 550 µM; with OVCAR-8 ovarian, greater than 550 µM. The TGI with SK-MEL-28 melanoma is greater than 539 µM; with SN12C renal, greater than 550 µM; with U251 CNS, greater than 550 µM.

Consider `Cc1cc(C[C@H]2O[C@@H]3OC(C)(C)O[C@@H]3[C@H]3OC(C)(C)O[C@H]32)c2ccccc2n1`, for which the TGI in the experiment with HOP-62 NSCLC was greater than 100 µM; in the experiment on NCI-H460 lung, greater than 100 µM; in the experiment on NCI-H522 lung, 94.4 µM; in the experiment with OVCAR-4 ovarian it was greater than 100 µM; with OVCAR-8 ovarian, greater than 100 µM; in the experiment on SK-MEL-28 melanoma, greater than 100 µM. For the same compound, the TGI with SN12C renal and with U251 CNS was greater than 100 µM throughout.

In the case of `O[C@H]1[C@H](O)[C@@H](O)CN2CC[C@H](O)[C@H]12`, the TGI with HOP-62 NSCLC, in the experiment on HOP-92 NSCLC, with NCI-H460 lung, in the experiment with NCI-H522 lung, with OVCAR-4 ovarian and in the experiment with OVCAR-8 ovarian was greater than 100 µM throughout. Moreover, the TGI in the experiment with SK-MEL-28 melanoma, in the experiment with SN12C renal and in the experiment with U251 CNS was greater than 100 µM each time.

For the compound `CCOC(=O)/C=C1/C(CCCOCc2ccccc2)C2CCCC23CC2(CCN13)OCCO2` (stereo unspecified), the TGI in the experiment on NCI-H460 lung was 47.1 µM; in the experiment with NCI-H522 lung it was 31.3 µM; in the experiment with OVCAR-4 ovarian, greater than 100 µM; with OVCAR-8 ovarian it was greater than 100 µM; in the experiment with SK-MEL-28 melanoma it was 51.3 µM; in the experiment on SN12C renal, 86.8 µM. This compound also displayed a TGI in the experiment on U251 CNS of 51.4 µM.

For `O=C(NN1C(=O)CS(=O)(=O)C1c1ccc(C(F)(F)F)cc1)c1ccncc1` (stereo unspecified), the TGI in the experiment with HOP-62 NSCLC, with HOP-92 NSCLC, with NCI-H460 lung, with NCI-H522 lung, in the experiment with OVCAR-4 ovarian and in the experiment on SK-MEL-28 melanoma was greater than 100 µM throughout. The TGI in the experiment on SN12C renal and in the experiment with U251 CNS was greater than 100 µM throughout.
